In brackets after ≈: the same amount, converted by molar mass. Some results are limits rather than exact numbers.

In patent US7524860B2, “Antibacterial agents” (Pfizer Inc., priority 2004, dated 2009) one finds MIC data, which are given here for 25 molecules.

The subject of the experiment is Neisseria gonorrhoeae, GC525 (NG-2888). The experiment can be described thus: in-vitro antibacterial activity, microbroth dilution MIC susceptibility testing. The format is cell-based. Conditions: Neisseria gonorrhoeae, microbroth dilution in gonococcal broth, 20-24 hours at 35 C, lowest concentration preventing visible growth, read-out: MIC. The method, then:
The in-vitro antibacterial activity of selected compounds was determined against a stain of Neisseria gonorrhoeae, GC525 (NG-2888), which is described by Rouquette-Loughlin et al, in Journal of Bacteriology, February 2003, p. 1101-1106, at p. 1103. In general, minimum inhibitory concentration (MIC) susceptibility testing followed procedures recommended by the National Committee for Clinical Laboratory Standards (NCCLS^1-2) or followed the descriptions described below:
Neisseria gonorrhoeae strains were grown on Chocolate Agar II plates (BBL—Becton Dickinson Microbiology Systems, Cockeysville, Md.) and incubated at 35° C. in a humidified 5% CO2 incubator (Form a Scientific, Marietta Ohio). For microbroth dilution MIC testing, N. gonorrhoeae were tested in gonococcal broth (GCB):
Gram stains were also utilized. Permanent Stock Culture Collection
Bacterial stock cultures are stored as frozen suspensions at −70 C. N. gonorrhoeae cultures are suspended in inactivated Horse Serum (Colorado Serum Company, Denver, Colo.) containing 7.5% glucose prior to snap freezing in a dry ice/ethanol bath.
Preparation of Standardized Test Inocula and Plate Inoculation
Frozen stock cultures were used as the initial source of organisms for performing microbroth dilution MIC testing. Stock cultures were passed on their respective growth medium at least one growth cycle (18-24 hours) prior to their use. Bacterial culture suspensions were prepared directly from Chocolate Agar II plates into 10 mL cation-adjusted Mueller-Hinton Broth (CAMHB, BBL, # BB215069). Before use, cultures were adjusted to an optical density value of 1.6-2 on a Perkin-Elmer Lambda EZ150 Spectrophotometer (Wellesley, Mass.) set at a wavelength of 600 nm. Random cultures were plated for validation of actual colony counts. The adjusted cultures were diluted 400-fold (0.25 mL inoculum+100 mL GCB) into gonococcal broth producing a starting inoculum of approximately 5×10^5 cfu/mL. These cultures were inoculated into test plates (100 uL/well) using a Biomek® FX workstation (Beckman Coulter Inc., Fullerton, Calif.). The inoculated plates were placed in stacks of no more than 4 and covered with an empty plate. Plates were incubated for 20-24 hours at 35 C in a humidified CO2 incubator.
Test Compound (“Drug”) Preparation
Drug stock solutions (2 mg/mL in DMSO) were prepared on the day of testing. Drugs were weight corrected for assay content where necessary.
Drug Dilution Tray Preparation
Microbroth dilution stock plates were prepared in two dilution series, 64-0.06 ug drug/mL and 1-0.001 ug drug/mL. For the high concentration series, 200 uL of stock solution (2 mg/mL) was added to duplicate rows of a 96-well plate. This was used as the first well in the dilution series. Serial two-fold decremental dilutions were made using a BioMek FX robot (Beckman Coulter Inc., Fullerton, Calif.) with 10 of the remaining 11 wells, each of which contained 100 uL of the appropriate solvent/diluent. Row 12 contained solvent/diluent only and served as the control. For tube one of the low concentration series, 200 uL of a 31.25 ug/mL stock was added to duplicate rows of a 96-well plate. Serial two-fold dilutions were made as described above.
Daughter plates were spotted (3.2 uL/well) from the stock plates listed above using the BioMek FX robot and were inoculated with organism (100 uL/well) as described previously.
After incubation, the degree of growth in each well was read visually with the aid of a Test Reading Mirror (Dynatech Lab 220-16, Dynex Technologies, Chantilly, Va.). 96-well test plates are read in a darkened room with a single light shining from above. The MIC is the lowest concentration of drug that prevents macroscopically visible growth under the conditions of the test. […] If MIC values in duplicate tests differ by 1 well (two-fold), the […] value is reported. If duplicate tests vary by 2 dilutions (four-fold), the middle value is reported.
For orientation: In broth dilution the organism is exposed to a series of concentrations in liquid medium.
For orientation: MIC means the lowest concentration found to suppress growth. Regarding `CCNC(=O)Nc1nc2cc(-c3ccc(F)c(F)c3)cc(C(=O)NCC)n2n1` [Example 55, 7-(3,4-Difluoro-phenyl)-2-(3-ethyl-ureido)-[1,2,4]triazolo[1,5-a]pyridine-5-carboxylic acid ethylamide], the MIC stood at 2 µg/mL (≈ 5.15 µM).

For the molecule `CCNC(=O)Nc1nc2cc(-c3ccc4c(c3)CCO4)cc(C(=O)NCC)n2n1` [Example 57, 7-(2,3-Dihydro-benzofuran-5-yl)-2-(3-ethyl-ureido)-[1,2,4]triazolo[1,5-a]pyridine-5-carboxylic acid ethylamide], the MIC worked out at 2 µg/mL (≈ 5.07 µM).

Take `CCNC(=O)Nc1nc2cc(-c3ccc(C(C)(C)C)cc3)cc(C(=O)NCC)n2n1` [Example 58, 7-(4-tert-Butyl-phenyl)-2-(3-ethyl-ureido)-[1,2,4]triazolo[1,5-a]pyridine-5-carboxylic acid ethylamide]: the MIC turned out to be 2 µg/mL (≈ 4.9 µM). As to `CCNC(=O)Nc1nc2cc(-c3cccc(SC)c3)cc(C(=O)NCC)n2n1` [Example 60, 2-(3-Ethyl-ureido)-7-(3-methyl-sulfanyl-phenyl)-[1,2,4]triazolo[1,5-a]pyridine-5-carboxylic acid ethylamide], the MIC was greater than 16 µg/mL.

For `CCNC(=O)Nc1nc2cc(-c3ccc(C(C)C)cc3)cc(C(=O)NCC)n2n1` [Example 61, 2-(3-Ethyl-ureido)-7-(4-isopropyl-phenyl)-[1,2,4]triazolo[1,5-a]pyridine-5-carboxylic acid ethylamide], the MIC is 2 µg/mL (≈ 5.07 µM). For `CCNC(=O)Nc1nc2cc(-c3cccc(C(C)C)c3)cc(C(=O)NCC)n2n1` [Example 62, 2-(3-Ethyl-ureido)-7-(3-isopropyl-phenyl)-[1,2,4]triazolo[1,5-a]pyridine-5-carboxylic acid ethylamide], the MIC came to 2 µg/mL (≈ 5.07 µM). The figure for `CCNC(=O)Nc1nc2cc(-c3ccc(F)cc3C)cc(C(=O)NCC)n2n1` [Example 63, 2-(3-Ethyl-ureido)-7-(4-fluoro-2-methyl-phenyl)-[1,2,4]triazolo[1,5-a]pyridine-5-carboxylic acid ethylamide] is 8 µg/mL (≈ 20.8 µM). For `CCNC(=O)Nc1nc2cc(-c3ccc(F)cc3F)cc(C(=O)NCC)n2n1` [Example 64, 7-(2,4-Difluoro-phenyl)-2-(3-ethyl-ureido)-[1,2,4]triazolo[1,5-a]pyridine-5-carboxylic acid ethylamide], the MIC is greater than 64 µg/mL. As to `CCNC(=O)Nc1nc2cc(-c3ccccc3C#N)cc(C(=O)NCC)n2n1` [Example 65, 7-(2-Cyano-phenyl)-2-(3-ethyl-ureido)-[1,2,4]triazolo[1,5-a]pyridine-5-carboxylic acid ethylamide], the MIC was determined as 32 µg/mL (≈ 84.8 µM). Consider `CCNC(=O)Nc1nc2cc(-c3cc(F)ccc3F)cc(C(=O)NCC)n2n1` [Example 66, 7-(2,5-Difluoro-phenyl)-2-(3-ethyl-ureido)-[1,2,4]triazolo[1,5-a]pyridine-5-carboxylic acid ethylamide], for which the MIC stood at 4 µg/mL (≈ 10.3 µM).

For the molecule `CCNC(=O)Nc1nc2cc(-c3cccc(Cl)c3)cc(C(=O)NCC)n2n1` [Example 67, 7-(3-Chloro-phenyl)-2-(3-ethyl-ureido)-[1,2,4]triazolo[1,5-a]pyridine-5-carboxylic acid ethylamide], the MIC was 1 µg/mL (≈ 2.59 µM). For `CCNC(=O)Nc1nc2cc(-c3ccc(C)cc3)cc(C(=O)NCC)n2n1` [Example 68, 2-(3-Ethyl-ureido)-7-p-tolyl-[1,2,4]triazolo[1,5-a]pyridine-5-carboxylic acid ethylamide], the MIC came to 2 µg/mL (≈ 5.46 µM).

Regarding `CCNC(=O)Nc1nc2cc(-c3ccc(F)cc3)cc(C(=O)NCC)n2n1` [Example 69, 2-(3-Ethyl-ureido)-7-(4-fluoro-phenyl)-[1,2,4]triazolo[1,5-a]pyridine-5-carboxylic acid ethylamide], the MIC stood at 8 µg/mL (≈ 21.6 µM). Regarding `CCNC(=O)Nc1nc2cc(-c3cccc(F)c3)cc(C(=O)NCC)n2n1` [Example 70, 2-(3-Ethyl-ureido)-7-(3-fluoro-phenyl)-[1,2,4]triazolo[1,5-a]pyridine-5-carboxylic acid ethylamide], the MIC was 1 µg/mL (≈ 2.7 µM). With `CCNC(=O)Nc1nc2cc(-c3ccccc3)cc(C(=O)NCC)n2n1` [Example 71, 2-(3-Ethyl-ureido)-7-phenyl-[1,2,4]triazolo[1,5-a]pyridine-5-carboxylic acid ethylamide], the MIC is 4 µg/mL (≈ 11.4 µM). For `CCNC(=O)Nc1nc2cc(-c3ccccc3F)cc(C(=O)NCC)n2n1` [Example 72, 2-(3-Ethyl-ureido)-7-(2-fluoro-phenyl)-[1,2,4]triazolo[1,5-a]pyridine-5-carboxylic acid ethylamide], the MIC is 4 µg/mL (≈ 10.8 µM). As for `CCNC(=O)Nc1nc2cc(-c3ccccc3C)cc(C(=O)NCC)n2n1` [Example 73, 2-(3-Ethyl-ureido)-7-o-tolyl-[1,2,4]triazolo[1,5-a]pyridine-5-carboxylic acid ethylamide], the figure is 16 µg/mL (≈ 43.7 µM); as for `CCNC(=O)Nc1nc2cc(-c3cccnc3)cc(C(=O)NC3CCC3)n2n1` [Example 75, 2-(3-Ethyl-ureido)-7-pyridin-3-yl-[1,2,4]triazolo[1,5-a]pyridine-5-carboxylic acid cyclobutylamide], 2 µg/mL (≈ 5.27 µM). In the case of `CCNC(=O)Nc1nc2cc(-c3cccnc3)cc(C(=O)N(C)Cc3cc(C)no3)n2n1` [Example 76, 2-(3-Ethyl-ureido)-7-pyridin-3-yl-[1,2,4]triazolo[1,5-a]pyridine-5-carboxylic acidmethyl-(3-methyl-isoxazol-5-yl-methyl)-amide], the MIC stood at 8 µg/mL (≈ 18.4 µM). As for `CCNC(=O)Nc1nc2cc(-c3cccnc3)cc(C(=O)N3CCCC3C)n2n1` (stereo not shown) [Example 77, 1-Ethyl-3-[5-(2-methyl-pyrrolidine-1-carbonyl)-7-pyridin-3-yl-[1,2,4]triazolo[1,5-a]pyridin-2-yl]-urea], the figure is 1 µg/mL (≈ 2.54 µM).

On to `CCNC(=O)Nc1nc2cc(-c3cccc4ncccc34)cc(C(=O)NCC)n2n1` [Example 78, 2-(3-Ethyl-ureido)-7-quinolin-5-yl-[1,2,4]triazolo[1,5-a]pyridine-5-carboxylic acid ethylamide], for which the MIC came to 8 µg/mL (≈ 19.8 µM). Take `CCNC(=O)Nc1nc2cc(-c3ccc(OC(C)C)cc3)cc(C(=O)NCC)n2n1` [Example 80, 2-(3-Ethyl-ureido)-7-(4-isopropoxy-phenyl)-[1,2,4]triazolo[1,5-a]pyridine-5-carboxylic acid ethylamide]: the MIC was greater than 64 µg/mL. The figure for `CCNC(=O)Nc1nc2cc(-c3cccc(C#N)c3)cc(C(=O)NCC)n2n1` [Example 81, 7-(3-Cyano-phenyl)-2-(3-ethyl-ureido)-[1,2,4]triazolo[1,5-a]pyridine-5-carboxylic acid ethylamide] is 2 µg/mL (≈ 5.3 µM). In the case of `CCNC(=O)Nc1nc2cc(-c3ccccc3C(F)(F)F)cc(C(=O)NCC)n2n1` [Example 82, 2-(3-Ethyl-ureido)-7-(2-trifluoromethyl-phenyl)-[1,2,4]triazolo[1,5-a]pyridine-5-carboxylic acid ethylamide], the MIC is greater than 64 µg/mL.

As to `CCNC(=O)Nc1nc2cc(-c3cccnc3)cc(C(=O)N(C)C(C)c3ccncc3)n2n1` (stereo not shown) [Example 86, 2-(3-Ethyl-ureido)-7-pyridin-3-yl-[1,2,4]triazolo[1,5-a]pyridine-5-carboxylic acid methyl-(1-pyridin-4-yl-ethyl)-amide], the MIC came out at 16 µg/mL (≈ 36 µM).
